Results published in patent publication US7183383B2, “Uses of collagen IV” (The University of Arkansas for Medical Sciences, priority 2002, dated 2007).

Assays:
Assay type in all cases: cell-based, rabbit
[1] = tested on: collagen-binding integrin subunits α1, α2, and β1; test: Subcellular localization of CBIs by confocal microscopy; details: for CBIs on the apical membrane of injured RPTC: by day 6 after DCVC; for CBIs on the apical membrane of injured RPTC / basal localization of CBI subunits α1, α2, and β1 in injured RPTC: pharmacological AscP or exogenous collagen IV
Description: Collagen-binding integrin localization was determined using confocal microscopy of renal proximal tubular cell monolayers stained with monoclonal antibodies to integrin subunits α1, α2, and β1. Renal proximal tubular cell monolayers were washed 3 times with PBS and fixed with 10% buffered formalin (4% formaldehyde) for 20 minutes at room temperature. After 3 washes with PBS, monolayers were permeabilized in PTB buffer (PBS+0.3% Triton X-100+0.1% BSA) for 10 minutes at room temperature. Monolayers were washed 3 times with 0.1% BSA in PBS and incubated with 8% BSA in PBS for 30 minutes at room temperature. BSA (1%) in PBS containing 5 μg/ml of specific integrin antibodies or non-specific IgG was added to renal proximal tubular cell monolayers and incubated overnight a t 4° C. with moderate shaking. Following 3 washes with PTB buffer, monolayers were incubated for 2 hours in the dark at room temperature with 1% BSA in PBS containing a 1:100 dilution of a FITC-conjugated goat anti-mouse IgG. Monolayers were washed 3 times with PTB, and glass coverslips were applied after the addition of 2–3 drops of mounting media. Confocal microscopy was performed using a Zeiss confocal laser scanning microscope (Model 410, Carl Zeiss, Inc., Thornwood, N.Y.). Basal and apical membrane locations were determined visually in the Z-plane using light field microscopy. Two to three photomicrographs per monolayer at the basal and apical membranes were then scanned with an omnichrome laser filtered at 488 nm to detect FITC.

[2] = tested on: collagen-binding integrin subunits α1, α2, and β1; test: Expression of collagen-binding integrins by flow cytometry; details: for expression of CBI subunits α1, α2, or β1 in sublethally injured RPTC: DCVC-injured RPTC; for expression of CBI subunits α1, α2, or β1 in sublethally injured RPTC / collagen-binding integrin α1, α2, and β1 expression in uninjured RPTC: AscP 500 μM or collagen IV 50 μg/ml
Description: CBI expression was measured by flow cytometry of renal proximal tubular cells immunostained with monoclonal antibodies to integrin subunits α1, α2, and β1. Renal proximal tubular cell monolayers were washed 3 times with ice-cold PBS, gently scraped from culture dishes into cell culture media containing 5% BSA (BSA/media), and transferred to microcentrifuge tubes. Renal proximal tubular cells were dissociated by pipeting, incubated on ice with moderate shaking for 20 minutes, centrifuged, and resuspended in 1% BSA/media containing 2 μg/ml of a specific anti-integrin antibody or non-specific IgG on ice with moderate shaking for 1 hour. After 3 washes with 1% BSA/media, renal proximal tubular cells were incubated for 30 minutes in the dark with a goat-anti mouse FITC-conjugated IgG diluted 1:100 in 1% BSA/media, followed by 3 washes with ice-cold PBS. Membrane expression of collagen-binding integrins was determined immediately by flow cytometry using a FACSCalibur four-color cell sorter/analyzer (Beckton Dickinson, San Jose, Calif.) with a blue argon laser for detection of FITC. Specific binding was calculated as total fluorescence minus that in IgG controls.

[3] = tested on: Na^+/K^+-ATPase activity in renal proximal tubular cells; test: Na^+/K^+-ATPase activity (ouabain-sensitive ATPase)
Description: Confluent monolayers of renal proximal tubular cells (day 6 after seeding) were exposed to 200 μM S-(1,2-dichlorovinyl)-L-cysteine (dissolved in water) for 1.75 hours followed by toxicant removal and addition of fresh culture media. This method produces approximately 50% cell death and loss 24 hours after the exposure. On days 1, 4, and 6 following S-(1,2-dichlorovinyl)-L-cysteine exposure, the ability of the remaining renal proximal tubular cells to regenerate and repair physiological function was monitored as described below. In some experiments, immediately after S-(1,2-dichlorovinyl)-L-cysteine exposure and after daily media change through day 6 after injury, collagen I (0, 5, 15, or 50 μg/ml), collagen IV (0, 5, 15, or 50 μg/ml), laminin (50 μg/ml), or cellular fibronectin (50 μg/ml) was added to the culture media of uninjured and S-(1,2-dichlorovinyl)-L-cysteine-injured renal proximal tubular cells grown in physiological concentrations of AscP. Exogenous collagens I and IV used in this study were triple helical and contained only α1 and α2 chains in conformations similar to those found in the renal basement membrane (3, 25). Laminin was a mixture of biologically active laminin chains found in most epithelial tissues (8, 50) and cellular fibronectin was composed of functional dimers (51).
On days 1 and 6 after sublethal S-(1,2-dichlorovinyl)-L-cysteine injury, total ATPase activity was measured using a modification of a previously described procedure (44). Briefly, renal proximal tubular cells cultured in 48-well cell culture clusters were scraped and incubated in dissociation buffer (5 mM HEPES (pH 7.4), 25 mM imidazole, 1% BSA, 0.065% sodium dodecyl sulfate (SDS)) for 10 min. at room temperature and placed on ice. The dissociated renal proximal tubular cells were then diluted 5-fold with additional dissociation buffer minus SDS. Aliquots of dissociated renal proximal tubular cells were combined with fresh ATPase assay buffer (2.54 mM MgCl2, 100 mM NaCl, 10 mM KCl, 5 mM HEPES, 10 U/ml lactate dehydrogenase, 7 U/ml pyruvate kinase, 2.54 mM Na2ATP, 2.54 mM phospho(enol)pyruvate, and 0.5 mM β-NADH). ATPase activity was measured under linear conditions spectrophotometrically as the oxidation of β-NADH to NAD^+ at 37° C. in the absence or presence of ouabain (0.1 mM) at a wavelength of 340 nm. Na^+/K^+-ATPase activity was calculated as total ATPase activity minus ouabain-insensitive ATPase activity.
(§1) Confluent monolayers of renal proximal tubular cells (day 6 after seeding) were exposed to 200 μM S-(1,2-dichlorovinyl)-L-cysteine (dissolved in water) for 1.75 hours followed by toxicant removal and addition of fresh culture media. This method produces approximately 50% cell death and loss 24 hours after the exposure. In some experiments, exogenous collagen IV (50 μg/ml), collagen I (50 μg/ml), or function-stimulating antibodies to collagen-binding integrin subunits α2 or β1 (5 μg/ml) was added daily to the culture media of S-(1,2-dichlorovinyl)-L-cysteine-injured renal proximal tubular cells cultured in the absence of pharmacological concentrations of L-ascorbic acid-2-phosphate. Function-stimulating antibodies to collagen-binding integrin α1 are not commercially available at this time. On days 1 and 6 following S-(1,2-dichlorovinyl)-L-cysteine exposure, active Na^+ transport or Na^+/K^+-ATPase activity, and collagen-binding integrin expression and/or localization in the remaining sublethally injured renal proximal tubular cells was determined as described below.
Total ATPase activity was measured as described above. […]

[4] = tested on: renal proximal tubular cells; test: Active Na^+ transport (ouabain-sensitive QO2); details: for decrease in active Na^+ transport: day 1 after DCVC injury, in presence of the agent; for active Na+ transport in uninjured RPTC: days 1 or 6
Description: as §1
Renal proximal tubular cells were gently detached from culture dishes with a rubber policeman and transferred to a 37° C. oxygen consumption (QO2) chamber. QO2 in renal proximal tubular cells was measured polarographically in the absence (basal QO2) or presence of ouabain (100 μM) (ouabain-insensitive QO2) using a Clark-type electrode as described previously (Nowak and Schnellmann, 1995). Active Na^+ transport (ouabain-sensitive QO2) was calculated by subtracting ouabain-insensitive QO2 from basal QO2. Protein concentrations were determined using the bicinchoninic acid microassay according to the manufacturer's instructions (Pierce, Rockford, Ill.).

[5] = day 6, AscP 500 μM or collagen IV 50 μg/ml

Row | Molecule | apical membrane distribution of CBI subunits α1, α2, and β1 ([1]; day 1 after DCVC injury) | CBI α1, α2, and β1 staining at the basal membrane ([1]; day 1 following DCVC) | apical membrane distribution of CBIs ([1]; day 6 after DCVC injury) | basal localization of CBI subunits α1, α2, and β1 ([1]; day 6 after DCVC, absence of pharmacological AscP or collagen IV) | expression of CBI subunits α1, α2, and β1 compared to controls ([2]; day 1 after DCVC) | expression of CBI subunits α1 and β1 compared to controls ([2]; day 6 after DCVC) | decrease in Na^+/K^+-ATPase activity ([3]; one day after DCVC (200 μM), both 50 μM and 500 μM AscP) [%] | active Na^+ transport ([4]; day 1 following DCVC injury) | active Na^+ transport ([4]; day 6 after DCVC injury) | CBIs on the apical membrane of injured RPTC [1] | basal localization of CBI subunits α1, α2, and β1 in injured RPTC ([1]; day 6 after DCVC) | expression of CBI subunits α1, α2, or β1 in sublethally injured RPTC [2] | collagen-binding integrin α1, α2, and β1 expression in uninjured RPTC [2] | Na^+/K^+-ATPase activity in injured RPTC ([3]; day 6 after DCVC injury, 50 μg/ml) | decrease in active Na^+ transport [4] | active Na^+ transport in DCVC-injured RPTC [4, 5] | active Na^+ transport in DCVC-injured RPTC ([4]; day 6 after injury, 5, 15, 50 μg/ml) | active Na+ transport in uninjured RPTC [4] | Na^+/K^+-ATPase activity higher than in injured RPTC in physiological AscP ([3]; day 6 after DCVC, 500 μM AscP) | Na^+/K^+-ATPase activity, untreated RPTC, 50 μM vs 500 μM ([3]; uninjured RPTC)
1 | N[C@@H](CSC(Cl)=CCl)C(=O)O [S-(1,2-dichlorovinyl)-L-cysteine] | partially redistributed to the apical membrane | decreased compared to controls | continued to exhibit CBI is distributed to the apical membrane | still decreased compared to sub-confluent controls | unchanged | unchanged | ~65 | marked inhibition | marked inhibition |  |  |  |  |  |  |  |  |  |  | 
2 | collagen IV: Human placenta collagen IV (Sigma); triple helical, containing only α1 and α2 chains |  |  |  |  |  |  |  |  |  | complete disappearance | return to control levels | did not affect | did not affect | significantly increased | approximately 80% | increase in active Na^+ transport | concentration-dependent improvement | no effect |  | 
3 | O=C1O[C@H]([C@@H](O)CO)C(O)=C1OP(=O)(O)O [L-ascorbic acid-2-phosphate, L-Ascorbic acid-2-phosphate] |  |  |  |  |  |  |  |  |  | complete disappearance | return to control levels | did not affect | did not affect |  | approximately 80% | increase in active Na^+ transport |  | no effect | approximately 150% | equivalent at all time points
